In assay [1] the test system is breast adenocarcinoma (MCF-7). Put plainly: in vitro cytotoxicity, MTT assay. In kind it is cell-based, human. Conditions: mean ± SD, at least three independent experiments. On the procedure: (§1) The testing was performed on the following human cancer cell lines: breast adenocarcinoma (MCF-7), osteosarcoma (HOS), lung adenocarcinoma (A549), prostate adenocarcinoma (PC-3), ovarian carcinoma (A2780), cisplatin-resistant ovarian carcinoma (A2780R) and colorectal adenocarcinoma (Caco-2) obtained from ATCC collection of cell lines and cultivated according to producer’s instructions.
Background: Formazan colour is commonly taken as a measure of viable cells.

The test system of assay [2] is cisplatin-resistant ovarian carcinoma (A2780R). The experiment in a line: in vitro cytotoxicity, MTT assay. The format is cell-based, human. Conditions: mean ± SD, at least three independent experiments. The method, then:
as §1

For assay [3], the system named is lung adenocarcinoma (A549). The experiment in a line: in vitro cytotoxicity, MTT assay. The format is cell-based, human. As to conditions: mean ± SD, at least three independent experiments. On the procedure:
as §1

The subject of assay [4] is ovarian carcinoma (A2780). Put plainly: in vitro cytotoxicity, MTT assay. Conditions: mean ± SD, at least three independent experiments. In kind it is cell-based, human. The method, then:
as §1

For assay [5], the system named is prostate adenocarcinoma (PC-3). Put plainly: in vitro cytotoxicity, MTT assay. The format is cell-based, human. Conditions: mean ± SD, at least three independent experiments. The method, then:
as §1

Assay [6] concerns osteosarcoma (HOS). The experiment in a line: in vitro cytotoxicity, MTT assay. In kind it is cell-based, human. Conditions: mean ± SD, at least three independent experiments.
For assay [7], the system named is colorectal adenocarcinoma (Caco-2). Put plainly: in vitro cytotoxicity, MTT assay. In kind it is cell-based, human. As to conditions: mean ± SD, at least three independent experiments.
For assay [8], the system named is THP-1 human monocytic leukemia cell line. Put plainly: relative cell viability, WST-1. In kind it is cell-based. Conditions: serum-free medium, 24 h, six independent experiments. The method, then:
The THP-1 human monocytic leukemia cell line was purchased from the European Collection of Cell Cultures (ECACC, Salisbury, UK). Cells were cultured in an RPMI 1640 medium containing stabilized 2 mM L-glutamine (Biosera, Nuaille, France) supplemented with the mixture of antibiotics [100 U/mL penicillin and […] (Biosera, Nuaille, France)], and 10% foetal bovine serum (FBS) (HyClone, Marlborough, MA, USA). The cells were kept in an incubator at 37 °C in an atmosphere of air containing 5% CO2 and 100% humidity.
The relative cell viability of floating monocytes THP-1 were determined after 24 h incubation in a serum-free medium with compounds 1–5 dissolved in N,N-dimethylformamide (DMF) at increasing concentrations (20–0.125 µM) by the cell proliferation reagent WST-1 (Roche, Basel, Switzerland) according to the manufacturer’s manual, as we described previously. The IC50 values were calculated from resultant viability curves by four-parameter logistic (4PL) analysis.

Assay [9] relates to primary culture of human hepatocytes (Hep). The experiment in a line: toxicity against primary culture of human hepatocytes. The format is cell-based. As to conditions: tested range 0.1–100 μM.
For assay [10], the system named is NF-κB/AP-1 in THP-1-XBlue-MD2-CD14 cells. Put plainly: LPS-stimulated NF-κB/AP-1 activity, SEAP reporter. In kind it is cell-based, human. Conditions: complexes applied at 200 nM and 50 nM, 1 h pre-treatment, read 24 h after LPS. The method, then:
The activity of transcription factors NF-κB/AP-1 was evaluated using the THP-1-XBlue^TM-MD2-CD14 cell line [obtained from Invivogen (San Diego, CA, USA)], expressing an NF-κB/AP-1-inducible secreted embryonic alkaline phosphatase (SEAP) reporter gene, as was described previously. The complexes 1–5 were applied to the cells at the concentrations of 200 nM and 50 nM, pomiferin (at 200 nM), and a reference drug prednisone at 1 μM, respectively. Lipopolysaccharide (LPS) from E. coli 0111:B4 (Sigma-Aldrich) dissolved in PBS was used to trigger an inflammation-like reaction. The activity of the SEAP was determined by Quanti-Blue^TM reagent (Invivogen, San Diego, CA, USA) according to the manufacturer’s instructions 24 h after lipopolysaccharide stimulation. The activity of NF-κB/AP-1 was determined spectrophotometrically using the FLUOstar Omega microplate reader (BMG Labtech, Ortenberg, Germany) at 655 nm and compared with that of the vehicle.

Assay [11] has as its system THP-1 cells. Put plainly: intracellular production of reactive oxygen species, DCFH2-DA. In kind it is cell-based, human. As to conditions: THP-1, 200 nM, 23.5 h; pyocyanin 100 μM as radical-forming control. On the procedure: THP-1 cells were used for the determination of the potential of tested compounds to initiate the intracellular ROS production, as was described previously with some minor modifications. Cells in serum-free RPMI 1640 medium without phenol red were seeded into black 96-well plates (5 × 10^4 cells/100 µL/well). After 2 h of incubation, the cells were treated with copper(II) complexes 1–5 at a concentration of 200 nM, and pyocyanin at a final concentration of 100 μM was added into control group to trigger production of reactive oxygen species (ROS), respectively. After the incubation at 37 °C for either 1.5 h or 23.5 h, dichlorofluorescin diacetate (DCFH2-DA) (5 μg/mL) was added and cells were kept under the same conditions hereafter. Thirty minutes later, fluorometric measurement of the fluorescent product DCF was conducted using a Tecan Infinite F200 microplate reader (Tecan, Männedorf, Switzerland) with λ(ex./em.) = 485/520 nm.

Assay [12] concerns pUC19 plasmid DNA. Put plainly: nuclease-like activity, plasmid DNA cleavage. In kind it is biochemical.
The subject of assay [13] is caspase 3 (Casp-3) in THP-1 cells. Put plainly: Western blotting of apoptosis-related proteins. The format is cell-based, human. Conditions: THP-1, complexes 4 µM, 24 h, Western blot. On the procedure: In addition to the above-mentioned methods, the Western blotting method was used to shed light on the mechanisms associated with caspase 3 activation in the THP-1 cells. Two and a half milliliters of floating THP-1 monocytes resuspended in a serum-free RPMI 1640 medium were seeded into 6-well plates at the concentration of 10^6 cells/mL. Two hours later, complexes 3 and 5 were added at the concentration level of 4 µM. After 24 h incubation, the cells were collected by centrifugation (3000 g/5 min/4 °C), washed by cold PBS and resuspended in an ice-cold lysis buffer (50 mM Tris-HCl pH 7.5, 1 mM EGTA, 1 mM EDTA, 1 mM sodium orthovanadate, 50 mM sodium fluoride, 5 mM sodium pyrophosphate, 270 mM sucrose) with Roche cOmplete protease inhibitors (Roche Diagnostics, Basel, Switzerland). The cell lysates were centrifuged at 3000 g/5 min/4 °C and supernatants were mixed with a 5x Laemmli buffer [containing 250 mM Tris-HCl pH 6.8, 10% (w/v) SDS, 30% (v/v) glycerol, 5% (v/v) β-mercaptoethanol, 0.04% (w/v) bromphenol blue] and incubated at 70 °C for 5 min. […] The membranes were incubated at 4 °C for 16 h with a primary anti-cleaved caspase 3 (p17) antibody at the dilution 1:1000 (Cell Signaling, Danvers, MA, USA; products No. 9664), and an Apoptosis WB Cocktail (Abcam, Cambridge, UK; product No. ab136812) at the dilution recommended by the provider to detect β-actin, cleaved poly-(ADP-ribose) polymerase (PARP) and pro-caspase 3. After washing in a TBST buffer, the secondary anti-rabbit IgG antibody (Sigma-Aldrich, product No. A0545) was diluted 1:2500 and applied to the membranes, which were then incubated for 1 h at the laboratory temperature (~22 °C). The amount of bound secondary antibody was determined using an ECL reagent (Bio-Rad, Hercules, CA, USA). Chemiluminescence was detected using a Syngene PXi4 chemiluminescence imaging system (Cambridge, UK).

For assay [14], the system named is 518A2 melanoma cells. More on the design: method as in PMID 23973682. Conditions: 72 h incubation; cited from earlier work.
The test system of assay [15] is Panc-1 pancreas carcinoma cells. Further details: method as in PMID 27936296. As to conditions: 72 h incubation; cited from earlier work.
The test system of assay [16] is MCF-7/Topo breast adenocarcinoma cells. Further details: method as in PMID 27936296. As to conditions: 72 h incubation; cited from earlier work.
In assay [17] the test system is KB-V1/Vbl cervix carcinoma cells. Further details: method as in PMID 27936296. As to conditions: 72 h incubation; cited from earlier work.
For assay [18], the system named is DLD-1 colon carcinoma. Further details: method as in PMID 27936296. Conditions: 72 h incubation; cited from earlier work.
The subject of assay [19] is U-87 MG glioblastoma. Further details: method as in PMID 27936296. Conditions: 72 h incubation; cited from earlier work.
In assay [20] the test system is Ea.Hy 926 endothelial hybrid cells. More on the design: method as in PMID 27936296. Conditions: read-out: IC50 Ea.Hy 926 healthy endothelial hybrid cells; cited from earlier work.
Assay [21] deals with A2780 cell line. More on the design: method as in PMID 32578983. As to conditions: 24 h incubation; cited from earlier work.

A word on the IC50: it is the concentration needed to halve the response being measured. With `CC(C)=CCc1c2c(c3occ(-c4ccc(O)c(O)c4)c(=O)c3c1[O-])C=CC(C)(C)O2.CO.CO.O=[N+]([O-])[O-].[Cu+2].c1ccc(-c2ccccn2)nc1` [Complex 1, (3-(3,4-dihydroxyphenyl)-8,8-dimethyl-6-(3-methylbut-2-en-1-yl)-4H,8H-benzo[1,2-b:3,4-b′]dipyran-4-one-5-olato-κ^2O4:O5)(2,2′-bipyridine–κ^2N:N)copper(II) nitrate methanol disolvate], the IC50 was 23.8 ± 0.2 µM in [1]; 5.6 ± 0.3 µM in [2]; 20.8 ± 1.5 µM in [3]; 12.1 ± 1.5 µM in [4]; 22.1 ± 1.9 µM in assay [5]; 21.5 ± 1.4 µM in assay [6]. Moreover, the IC50 in [7] is 13.7 ± 7.4 µM; in [8], 4 ± 1.1 µM; in assay [9], greater than 100 µM. Also, the “inhibition of LPS-stimulated NF-κB/AP-1 activation” value in assay [10] is “able to inhibit”. Also, the “ROS production, long term” value in assay [11] was “elevated the ROS levels similarly as pyocyanin”. Further, the “plasmid DNA nicked to OC-form” value in [12] (10 µM, water-containing medium (10% DMF), 37 °C, 1 h) is listed as “ca. 30%”. For the same molecule, the “DNA cleavage in the presence of ROS scavengers (KI, NaN3, DMSO)” value in [12] (0.66 mM H2O2, scavengers equimolar to complex) is listed as “decreased by DMSO”.

For the molecule `CC(C)=CCc1c2c(c3occ(-c4ccc(O)c(O)c4)c(=O)c3c1[O-])C=CC(C)(C)O2.CO.CO.O=[N+]([O-])[O-].[Cu+2].c1cnc2c(c1)ccc1cccnc12` [Complex 3, (3-(3,4-dihydroxyphenyl)-8,8-dimethyl-6-(3-methylbut-2-en-1-yl)-4H,8H-benzo[1,2-b:3,4-b′]dipyran-4-one-5-olato-κ^2O4:O5)(1,10-phenanthroline–κ^2N:N)copper(II) nitrate methanol disolvate], the IC50 turned out to be 5.9 ± 0.6 µM in assay [1]; 2.9 ± 1.2 µM in assay [2]; 3.5 ± 0.2 µM in [3]; 5.8 ± 2.2 µM in assay [4]; 13 ± 1.4 µM in assay [5]; 3.5 ± 0.1 µM in assay [6]. Besides, the half-inhibitory concentration (IC50) in assay [7] was 4.2 ± 1.9 µM; in assay [8] it was greater than 10 µM; in assay [9], greater than 100 µM. The “levels of pro-caspase 3 (pro-Casp-3)” value in [13] is given as “dramatically decreased”. In addition, the “proteolytically activated Casp-3 (verified by cleaved PARP-1)” value in [13] (cisplatin 10 µM) is “detected”. Also, the “inhibition of LPS-stimulated NF-κB/AP-1 activation” value in assay [10] was “no influence on the activity”. Moreover, the “ROS production, long term” value in [11] was “highest pro-oxidant potential of all the complexes”.

As for `O=c1c(-c2ccc(O)cc2)coc2cc(O)cc([O-])c12.O=c1c(-c2ccc(O)cc2)coc2cc(O)cc([O-])c12.[Cu+2]` [[Cu(L)2], bis[3-(4-hydroxyphenyl)-7-hydroxy-4H-benzopyran-4-one-5-olato-κO^2] copper(II)], the IC50 in assay [14] is 10.9 ± 1.4 µM; in assay [15], 16.9 ± 0.8 µM; in [16] it was 15 ± 1.5 µM; in assay [17] it was 8 ± 0.2 µM; in [18], 21.2 ± 1.8 µM; in assay [19] it was 30.2 ± 5 µM. The IC50 in assay [20] was 20.1 ± 0.7 µM.

In the case of `c1ccc(-c2ccccn2)nc1` [bipy, 2,2′-bipyridine], the IC50 in assay [21] was greater than 100 µM.

As to `c1cnc2c(c1)ccc1cccnc12` [phen, 1,10-phenanthroline], the IC50 in assay [21] is greater than 100 µM.

The values above are taken from article PMC8305652, “Copper(II) Complexes Containing Natural Flavonoid Pomiferin Show Considerable In Vitro Cytotoxicity and Anti-inflammatory Effects” (International Journal of Molecular Sciences, 2021).
